Laboratory results as given in patent US7897722B2, “Composition of bone formation with PHSRN-RGD containing oligopeptide” (Seoul National University Industry Foundation, priority 2007, dated 2011).

Experiments:
MG63 cells [1] = experiment: Cell adhesion assay on coated culture plates; format: cell-based, human; conditions: plates coated with 0.1 μM recombinant oligopeptide; control poly-L-lysine-coated plate; P<0.05
Description: (§1) MG63 cells (Korean Cell Line Bank, KCLB), used in the present invention, which is a human osteosarcoma cell line, were cultured in Dulbecco's modified Eagle's medium (DMEM) containing 10% (v/v) fetal bovine serum and 0.1% (w/v) gentamycin at 37° C., in a humidified 5% CO2 incubator.
24-well plates were coated with 0.1 μM recombinant oligopeptide or poly-L-lysine at a predetermined concentration overnight at 4° C. and blocked with PBS containing 1% (w/v) BSA for 30 min, then rinsed with PBS.
The MG63 cells were serum-starved for 24 hours, harvested in 0.02% (w/v) trypsin, 1 mM EDTA, and resuspended in DMEM. After being washed 3 times with DMEM containing 100 μg/Ml soybean trypsin inhibitor and 1% (w/v) BSA, 5×10^4 MG63 cells in DMEM were plated in each well to culture at 37° C. for 30 min or 1 hour. Suspensions of control cells were maintained in BSA-coated plates at a given time. After 30 min, adherent cells were washed twice with PBS, fixed with 3% (w/v) paraformaldehyde, and stained with 0.25% (w/v) Crystal Violet (Sigma, USA) in 2% (v/v) ethanol/water. After washing with distilled water, the plates were allowed to dry. The absorbancy was measured at 570 nm to represent the mean±SD (standard deviation). Non-specific adhesion was determined using 1% BSA as a negative control group. […]

MG63 cells [2] = experiment: ALP (alkaline phosphatase) assay, osteoblastic cell differentiation; format: cell-based, human; conditions: 7 days, control poly-L-lysine-coated
Description: as §1
In order to determine osteoblastic cell differentiation, ALP (Alkaline phosphatase) activity that implies in vitro bone formation activity, was measured. 5×10^4 MG63 cells were cultured in 0.1 μM recombinant oligopeptide-coated or poly-L-lysine-coated six-well plates for 7 days. Then, they were washed with PBS and lysed in 1.5 M Tris/HCl (pH 10.2) containing 1 mM ZnCl2, 1 mM MgCl2 and 1% (w/v) Triton X-100 at 4° C. for 10 min. After clarifying the cell lysates by centrifugation, the ALP activity was assayed according to the manufacturer's protocol for the ALP assay kit (Sigma, USA).

DPHSRN-SITGTNLTPGYTITVYAVTG-RGD (DPHSRNSITGTNLTPGYTITVYAVTGRGD) [F20]
cell adhesion capacity (absorbance at 570 nm) compared with control plates (MG63 cells [1]): 2 fold
ALP activity of MG63 cells compared with control plates (MG63 cells [2]; 0.1 μM oligopeptide-coated plates): 2.5 fold
ALP activity of MG63 cells compared with control plates (MG63 cells [2]; 0.1 μM oligopeptide-coated six-well plates, n=3, P<0.05): 2.5 times
